From patent US20060240404A1, “Methods of isolating genes encoding proteins of specific function and of screening for pharmaceutically active agents” (Yeda Research And Development Co. Ltd., priority 2000, published 2006) come the findings set out here.

In this assay the test system is translocation of fibrillar adhesion in GFP-tensin transfected HFF cells. The experiment in a line: Correlation analysis of fibrillar adhesion dynamics in time-lapse movies of GFP-tensin transfected cells treated with acto-myosin inhibitors. Particulars: for duration till maximum respond after addition / translocation of fibrillar adhesion following addition: 2 mM Lat-A, 150 mM H-7 or 100 mM ML-7; for correlation between sequential frames following addition of inhibitor: Eq. 1, 2 mM Lat-A, 150 mM H-7 or 100 mM ML-7, before treatment <0.65. Format: cell-based. As for the experimental part:
HFF cells were analyzed by time-lapse fluorescence recording starting 24 hours after transfection with GFP-tensin as described (10). During the recording different inhibitors of acto-myosin contractility were added ([…]) at the time point indicated by the first arrow, and washed out at the time point indicated by the second arrow. In each digital movie, a constant square frame (I) of […] containing only fibrillar adhesions without focal contacts was acquired as a function of time. Correlation was calculated between pairs of subsequent time points (It and It+1) for the duration of the movie. Correlation between It and It+1 was calculated (according to Eq. 1, where N=It and M=It+1). The graphs present this correlation as a function of time (t); and
The basic idea of this novel approach is that correlation is a quantitative measure of image similarity. Correlation is defined as the normalized pixel-by-pixel multiplication of two normalized images M and N (Eq. 1), and it is higher when the similarity between the two images is higher. Thus, if, and only if, N and M are identical images the correlation gets its maximum value of 1. When N equals −M (inverted images) the correlation reaches its minimum value, −1, and when N and M are totally unrelated images the correlation approaches zero. The below correlation equation (Eq. 1) can be extended to evaluate the similarity of two images which, are displaced with respect to each other (Eq. 2). To illustrate how this can be applied to characterize dynamic processes consider 4 cases in which N and M are two images of the same field taken at two close time points: (i) a correlation which equals 1 indicates a lack of any change in the field (since N equals M); (ii) if all the objects in the field are translated one pixel along the x axis, such that Mx,y=Nx+1,y, the correlation defined above will be less then 1. Yet when the objects are bigger then one pixel they will overlap in the two images, and thus the value of the correlation between N and M will be still close to 1; (iii) if the objects are translated 100 pixels, such that Mx,y=Nx+100,y with no overlap between the objects in the two images, the correlation will be low. However there is a single translational vector ([a^max,b^max], Eq. 4), i.e. (1,0) for case (ii) and (100,0) for case (iii), that will bring the two images to perfectly overlap, Mx,y=Nx+a,y+b, and will raise the more general translated correlation (C, Eq. 2) back to its maximal value of unity; (iv) if the objects moved 100 pixels, but different ones moved to different directions, the correlation will be low for all possible translational vectors, since the two images never overlap.
Inhibitors of acto-myosin contractility, like latrunculin-A (Lat-A), H-7 and ML-7, block the translocation of fibrilar adhesion (Zamir et al., Nature Cell Biology, Vol. 2, 191-196, 2000). In order to follow the kinetics of this effect a correlation analysis according to Eq. 1 was applied on digital movies of GFP-tensin transfected cells before, during and after treatments with inhibitors. Before treatment, fibrilar adhesions were highly dynamic and thus the correlation between two sequential frames was low (<0.65, FIG. 2). Following the addition of Lat-A, H-7 or ML-7 the translocation of fibrillar adhesion was inhibited, leading to higher correlation between sequential frames (˜0.78, 0.81 and 0.92 for Lat-A, H-7 and ML-7, respectively). The duration till maximum respond to Lat-A was relatively short (˜8 minutes after addition), while the respond to H-7 and ML-7 were more gradual (˜50 minutes after H-7 addition and ˜80 minutes after ML-7 addition). After washing-out the drugs, the translocation of fibrillar adhesion recovered and the correlation dropped back to lower levels. The recovery from H-7 was relatively fast (<20 minutes) while recovery from Lat-A and ML-7 took relatively long time (>80 minutes).

Regarding `O=S(=O)(c1cccc2c(I)cccc12)N1CCCNCC1` [ML-7], the “duration till maximum respond after addition” value (shortened to “duration till maximum respond”) is about 80 min, the “translocation of fibrillar adhesion following addition” value is “inhibited” and the “correlation between sequential frames following addition of inhibitor” value was about 0.92.

With `CC1CNCCN1S(=O)(=O)c1cccc2cnccc12` (stereo not shown) [H-7], the “duration till maximum respond” value is about 50 min, the “translocation of fibrillar adhesion following addition” value is “inhibited” and the “correlation between sequential frames following addition of inhibitor” value is listed as about 0.81. Further, the “recovery of fibrillar adhesion translocation after washing-out the drug” value (after wash-out) is under 20 min.

As for `C/C1=C/C(=O)O[C@@H]2C[C@@H](CC[C@H](C)/C=C\C=C\CC1)O[C@@](O)([C@@H]1CSC(=O)N1)C2` [Lat-A, latrunculin-A], the “duration till maximum respond” value is about 8 min, the “translocation of fibrillar adhesion following addition” value was “inhibited” and the “correlation between sequential frames following addition of inhibitor” value is listed as about 0.78.
